Measurements reported in patent US4482560A, “Carbostyril derivatives, and antihistaminic agents containing the same” (priority 1979, dated 1984).

Legend:
[1] = tested on: conjunctiva of the animal; assay: Local anesthesia activity test; format: in vivo, guinea pig; details: 0.1% solution, 3 drops on conjunctiva, 60 stimulations in 30 minutes, four guinea pigs; saline control 0
Description: Guinea pig having about 300 to 350 g of body weight were used as the test animals. Three (3) drops of 0.1%-test compound dissolved in physiological saline solution were administered through 1/4-sized injection needle on the surface of conjuctiva of the test animal. After the administration of the test solution, the conjunctiva of the animal was stimulated ten times in every 5 minutes by a stylet (mandrine) or 1/4-sized injection needle, the stimulations were repeated 6 times within 30 minutes, thus 60 stimulations were given to the conjunctiva of the animal. The number of disappearing of eye-closing-reflexes, during 30 minutes after the administration of the test solution was counted as to the effectiveness of the local anesthesia activity. In this test, four (4) guinea pigs were used as one test group, and the test solution containing 0.1% of the test compound was applied to one test group, and physiological saline solution was, on the other hand, applied to another test group of the guinea pigs as the control.

[2] = tested on: Male mice of ddy-strain; assay: Halothane anesthesia increasing activity; format: in vivo, mouse; details: oral, 32 mg/kg, 1 hour before 4% Halothane for 3 minutes, male ddy mice; saline control 4.2
Description: Male mice of ddy-strain having about 20 g body weight were used. One test group consists of 10 mice. An aqueous Gummi Arabicum suspension of test compound (80 mg of a compound to be tested and 1 g of Gummi Arabicum/100 ml of physiological NaCl solution) was administered orally to each mouse at the dosage of 32 mg of test compound/kg body. One hour after the administration, each mouse was placed in gas respiration chamber (13×13×24 cm) and oxygen gas containing 4% of Halothane [2-bromo-2-chloro-1,1,1-trifluoroethane] was blown into the chamber at the velocity of 2 l/min for 3 minutes. A mouse anaesthetized was taken out from the chamber and the time between the introduction of anesthesia to waking was measured by righting reflex as the index. To mice of control group, 1% Gummi Arabicum aqueous physiological solution was orally administered at the dosage of 0.1 ml/kg body. (Reference: M. J. Turnbull and J. W. Watkins: Br. J. Pharmacol., 58, 27-35 (1976))

[3] = Acute toxicity test; details: rat, in vivo; oral, male rats
Description: Each of the compounds of the present invention was orally administered to male rats to determine the acute toxicity.

[4] = molecular target: ileum of a guinea pig (Cavia porcellus, UniProt P31389); assay: cell-based; details: histamine-induced retraction of guinea pig ileum, test compound 10^-6 g/ml, 36° C., Van Rossam method; for Kb: read-out: pA2 (converted)
Chain of ileum of a guinea pig (P31389 whole entry): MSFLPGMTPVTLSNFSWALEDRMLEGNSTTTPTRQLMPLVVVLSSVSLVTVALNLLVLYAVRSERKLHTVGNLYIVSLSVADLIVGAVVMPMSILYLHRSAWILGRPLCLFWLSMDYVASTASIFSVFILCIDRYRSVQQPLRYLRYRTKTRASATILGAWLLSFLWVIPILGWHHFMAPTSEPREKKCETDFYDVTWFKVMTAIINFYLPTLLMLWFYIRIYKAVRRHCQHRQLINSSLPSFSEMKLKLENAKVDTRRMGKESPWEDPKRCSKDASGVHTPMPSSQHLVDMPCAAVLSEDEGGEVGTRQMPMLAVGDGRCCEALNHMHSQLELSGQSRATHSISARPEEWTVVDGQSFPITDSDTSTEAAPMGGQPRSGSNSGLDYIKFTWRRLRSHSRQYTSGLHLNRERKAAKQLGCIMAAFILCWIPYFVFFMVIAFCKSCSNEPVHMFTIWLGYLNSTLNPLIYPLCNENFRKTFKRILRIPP
Description: Pharmacological tests of the present compounds were conducted according to said method as follows:
A male guinea pig having 300 to 500 g body weight is killed by blood letting. An ileum having length of 15 cm being enucleated from the ileocecal region is dipped into Tyrode's solution (which is prepared from 8.0 g of NaCl, 0.2 g of KCl, 0.2 g of CaCl2, 1.0 g of glucose, 1.0 g of NaHCO3, 0.065 g of NaHPO4.2H2 O and 0.2135 g of MgCl2.6H2 O to make 1000 ml in total volume by adding water). Then the tissue of ileum is cut to a length of 2.5 to 3.0 cm and suspended in an organ bath filled with 30 ml of Tyrode's solution. The organ bath is kept a temperature of 36° C. while blowing a mixed gas consisting of 5% of CO2 and 95% of O2 into the bath. 10 Minutes after the blowing, 10^-6 M of histamine is added to the bath to examine the sensitivity of the tissue and a reaction curve (control) with respect to the dosage of histamine is obtained. After the dosage of histamine-reaction curve (control) become constant 10^-6 g/ml of a compound to be tested is added to the bath and further histamine is added 5 minutes later to obtain dosage-reaction curve. Retraction of the ileum is recorded on a pen-recorder through an isotonic transducer (TD-112S manufactured by Nihon Koden).

Structure (SMILES) | Number of eye-closing reflex (number of disappearing of eye-closing-reflexes during 30 minutes) [1] | Time (minutes) between introduction of anesthesia and waking (righting reflex) [2] [min] | LD50 [3] [mg/kg] | Kb [4] [nM] | pA2 [4]
Cc1cc(=O)n(C)c2cc(OCCCN3CCN(Cc4ccc(Cl)cc4)CC3)ccc12 [C, 1,4-Dimethyl-7-{3-[4-(4-chlorobenzyl)-1-piperazin-1-yl]propoxy}-2-oxo-1,2-dihydroquinoline, reference compound] | 2.8 |  |  |  | 
O=C1CCc2c(cccc2OCCCN2CCC(Cc3ccccc3)CC2)N1 [Compound 1, 5-[3-(4-Benzyl-1-piperidyl)propoxy]-3,4-dihydrocarbostyril] | 55.1 | 4.7 | > 1000 | 0.302 | 
CN1C(=O)CCc2ccc(OCCCN3CCC(Cc4ccccc4)CC3)cc21.O=C(O)C(=O)O [Compound 2, 1-Methyl-7-[3-(4-benzyl-1-piperidyl)propoxy]-3,4-dihydrocarbostyril monooxalate] | 58.0 | 4.9 | > 1000 | 0.02 | 
O=C1CCc2ccc(OCC(O)CN3CCC(c4ccccc4)CC3)cc2N1 (stereo not shown) [Compound 9, 7-[2-Hydroxy-3-(4-phenyl-1-piperidyl)propoxy]-3,4-dihydrocarbostyril] | 29.2 | 4.1 | > 1000 | 0.129 | 
CN1C(=O)CCc2c(OCC(O)CN3CCC(Cc4ccccc4)CC3)cccc21.O=C(O)C(=O)O (stereo not shown) [Compound 10, 1-Methyl-5-[2-hydroxy-3-(4-benzyl-1-piperidyl)-propoxy]-3,4-dihydrocarbostyril monooxalate] | 37.3 | 4.8 | > 1000 | 0.24 | 
C[N+]1(CC(O)COc2cccc3c2CCC(=O)N3)CCC(c2ccccc2)CC1 (stereo not shown) [Compound 11, 4-Phenyl-1-[2-hydroxy-3-(2-oxo-1,2,3,4-tetra-hydroquinolin-5-yloxy)propyl]-1-methyl-piperidium iodide] | 27.6 | 5.2 | > 1000 | 5.89 | 
O=c1cc(-c2ccccc2)c2ccc(OCCCN3CCC(c4ccccc4)CC3)cc2[nH]1 [Compound 13, 4-Phenyl-7-[3-(4-phenyl-1-piperidyl)propoxy]-carbostyril monohydrochoride] | 28.0 | 5.6 | > 1000 | 0.186 | 
CC(=O)C1(c2ccccc2)CCN(CCCOc2ccc3c(c2)NC(=O)CC3)CC1 [Compound 15, 7-{3-[4-(4-Acetyl-4-phenyl)-1-piperidyl]}-3,4-dihydrocarbostyril] | 35.5 | 4.7 | > 1000 |  | 9.92
Cc1cc(=O)n(C)c2ccc(OCCCN3CCN(Cc4ccc(Cl)cc4)CC3)cc12 [D, reference compound] | 3.8 |  |  |  | 
Cc1cc(=O)[nH]c2cc(OCCCN3CCN(Cc4ccccc4)CC3)ccc12 [E, 4-Methyl-7-[3-(4-benzyl-piperazin-1-yl)-propoxy]-2-oxo-1,2-dihydroquinoline, reference compound] | 5.2 |  |  |  | 
